The target in one series is T1, LCK (Homo sapiens, UniProt P06239).
T1 construct: DNA label for qPCR read-out (T7 phage fusion or DNA tag); purchased Eurofins DiscoverX Corporation; host or cells: T7 phage in E. coli (BL21-derived) or HEK-293
Put plainly: KINOMEscan competition binding, LCK. Particulars: 10 µM compound; for remaining binding at 10 µM: lower = stronger binding, read-out: LCK %Ctrl @ 10000nM (POC). The protocol: (§1) The KINOMEscan screening platform (Eurofins DiscoverX Corporation) was performed using active site-directed competition binding assay to quantitatively measure interactions between BK40143 and BK40197 and more than 450 human kinases and disease relevant mutant variants. […] Screening “hits” are identified by measuring the amount of kinase captured in test (BK40143 and BK40197) versus control samples by using a quantitative and ultra-sensitive qRT-PCR method that detects the associated DNA label. BK40143 and BK40197 were screened at 10 µM concentration, and results for primary screen binding interactions were reported as “% Ctrl” (POC), where lower numbers indicate stronger hits and calculated as follows: [test compound signal−positive control signal/negative control signal−positive control signal]×100
(§2) negative control = DMSO (100% Ctrl)
(§3) positive control = control compound (0% Ctrl)
(§4) Based on screening data from of profiled compounds, a proportional relationship between primary screening results and corresponding compound/target affinities can be described as binding constants (Kd values) for the indicated ranges of POC values with tighter binding (higher affinity) interactions associated with lower POC values and weaker binding (lower affinity) associated with higher POC values. Briefly, kinase-tagged T7 phage strains were grown in parallel in 24-well blocks in an E. coli host derived from the BL21 strain. E. coli were grown to log-phase and infected with T7 phage from a frozen stock (multiplicity of infection = 0.4) and incubated with shaking at 32°C until lysis (90–150 min). The lysates were centrifuged (6,000g) and filtered (0.2 μm) to remove cell debris. The remaining kinases were produced in HEK-293 cells and subsequently tagged with DNA for qRT-PCR detection. Streptavidin-coated magnetic beads were treated with biotinylated small molecule ligands for 30 min at RT to generate affinity resins for kinase assays. The liganded beads were blocked with excess biotin and washed with blocking buffer (1% BSA, 0.05% Tween 20, 1 mM DTT; SeaBlock [Pierce]) to remove unbound ligand and to reduce non-specific phage binding. Binding reactions were assembled by combining kinases, liganded affinity beads, and test compounds in 1x binding buffer (20% 0.17x PBS, 0.05% Tween 20, 6 mM DTT; SeaBlock). Test compounds were prepared as 100x stocks in 100% DMSO and directly diluted into the assay. All reactions were performed in polypropylene 384-well plates in a final volume of 0.02 ml. The assay plates were incubated at RT with shaking for 1 h and the affinity beads were washed with wash buffer (1x PBS, 0.05% Tween 20). […] The kinase concentration in the eluates was measured by qRT-PCR.

The next series has as its system pTau. Put plainly: ELISA for pTau (S396) in brain lysates. The series is classed as in vivo, mouse. As to conditions: Tg4510 mice; vs DMSO. The procedure: (§5) All samples were analyzed in parallel using the same reagents. A total of 25 μl soluble protein was incubated overnight at 4°C with 25 μl of a mixed bead solution. After washing, samples were incubated with 25 μl detection antibody solution for 1.5 h at RT. Streptavidin–phycoerythrin (25 μl) was added to each well containing the 25 μl of detection antibody solution. Samples were then washed and suspended in 100 μl of sheath fluid. Samples were then run on MAGPIX with Xponent software. The median fluorescent intensity data were analyzed using a five-parameter logistic or spline curve-fitting method for calculating analyte concentrations in samples. Specific pTau ser396 (KHB7031; Invitrogen), aggregated Aβ (KHB3491; Thermo Fisher Scientific), and Aβ42 (KHB3442; Invitrogen) were performed according to manufacturer’s protocol on tissue soluble extracts from brain lysates in 1XSTEN buffer.

Another series concerns the target T2, SRC (Homo sapiens, UniProt P12931).
T2 construct: DNA label for qPCR read-out (T7 phage fusion or DNA tag); purchased Eurofins DiscoverX Corporation; host or cells: T7 phage in E. coli (BL21-derived) or HEK-293
Put plainly: KINOMEscan competition binding, SRC. Particulars: 10 µM compound; for remaining binding at 10 µM: lower = stronger binding, read-out: SRC %Ctrl @ 10000nM (POC). The procedure:
as §1, §2, §3, §4

A further series addresses T3, FLT3 (Homo sapiens, UniProt P36888).
T3 construct: DNA label for qPCR read-out (T7 phage fusion or DNA tag); purchased Eurofins DiscoverX Corporation; host or cells: T7 phage in E. coli (BL21-derived) or HEK-293
T3 sequence (P36888 27-993): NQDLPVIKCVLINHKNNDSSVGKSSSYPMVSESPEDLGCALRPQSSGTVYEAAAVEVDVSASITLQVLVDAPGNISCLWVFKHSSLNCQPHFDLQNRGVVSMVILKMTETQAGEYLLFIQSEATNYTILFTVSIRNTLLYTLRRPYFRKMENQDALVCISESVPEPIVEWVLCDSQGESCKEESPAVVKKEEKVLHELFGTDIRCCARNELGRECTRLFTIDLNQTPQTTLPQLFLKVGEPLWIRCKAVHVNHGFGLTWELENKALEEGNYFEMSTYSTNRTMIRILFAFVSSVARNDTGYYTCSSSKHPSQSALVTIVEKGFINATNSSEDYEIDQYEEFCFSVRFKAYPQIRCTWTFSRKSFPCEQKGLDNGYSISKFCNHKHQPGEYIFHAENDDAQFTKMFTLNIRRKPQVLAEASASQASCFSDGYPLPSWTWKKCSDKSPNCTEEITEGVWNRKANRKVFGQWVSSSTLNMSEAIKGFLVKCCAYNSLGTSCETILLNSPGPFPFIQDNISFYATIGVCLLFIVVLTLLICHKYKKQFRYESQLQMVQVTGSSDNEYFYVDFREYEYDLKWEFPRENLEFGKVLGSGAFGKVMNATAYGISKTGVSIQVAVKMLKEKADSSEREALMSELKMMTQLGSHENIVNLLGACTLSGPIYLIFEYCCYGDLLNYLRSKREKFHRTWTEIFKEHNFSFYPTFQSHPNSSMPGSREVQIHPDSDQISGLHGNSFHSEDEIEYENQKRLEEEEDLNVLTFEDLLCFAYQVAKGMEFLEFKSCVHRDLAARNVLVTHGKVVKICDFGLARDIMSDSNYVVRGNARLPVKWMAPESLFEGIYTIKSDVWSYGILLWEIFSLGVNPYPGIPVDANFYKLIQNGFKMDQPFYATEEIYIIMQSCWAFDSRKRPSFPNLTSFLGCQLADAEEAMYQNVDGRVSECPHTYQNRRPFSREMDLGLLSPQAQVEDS
Put plainly: KINOMEscan competition binding, FLT3. Particulars: 10 µM compound; for remaining binding at 10 µM: lower = stronger binding, read-out: FLT3 %Ctrl @ 10000nM (POC). The protocol:
as §1, §2, §3, §4

Series [1] relates to amyloid-beta in TgAPP mice. In words: ELISA for amyloid-beta in brain lysates. The series is classed as in vivo, mouse. Particulars: vs DMSO. The procedure: as §5
The next series is described as follows: Solubility in DMSO. It counts as physicochemical.

Usually inhibition stands for the share of the control response that was lost under treatment.

T2 sequence (P12931 whole entry, the tested form may be a part): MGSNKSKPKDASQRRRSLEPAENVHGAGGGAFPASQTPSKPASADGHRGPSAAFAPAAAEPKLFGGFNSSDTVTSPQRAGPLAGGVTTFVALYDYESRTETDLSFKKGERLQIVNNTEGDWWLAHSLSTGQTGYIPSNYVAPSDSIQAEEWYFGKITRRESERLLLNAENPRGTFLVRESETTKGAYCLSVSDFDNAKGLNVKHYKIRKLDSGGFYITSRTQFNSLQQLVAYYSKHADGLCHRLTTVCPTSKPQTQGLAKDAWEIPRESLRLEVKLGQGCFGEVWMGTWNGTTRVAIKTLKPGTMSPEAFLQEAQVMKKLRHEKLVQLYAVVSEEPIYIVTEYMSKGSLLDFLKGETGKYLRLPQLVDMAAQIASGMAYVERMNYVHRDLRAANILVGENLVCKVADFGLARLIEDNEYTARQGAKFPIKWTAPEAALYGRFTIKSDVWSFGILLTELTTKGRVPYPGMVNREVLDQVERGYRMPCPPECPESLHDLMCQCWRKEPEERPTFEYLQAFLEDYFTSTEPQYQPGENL
T1 sequence (P06239 whole entry, the tested form may be a part): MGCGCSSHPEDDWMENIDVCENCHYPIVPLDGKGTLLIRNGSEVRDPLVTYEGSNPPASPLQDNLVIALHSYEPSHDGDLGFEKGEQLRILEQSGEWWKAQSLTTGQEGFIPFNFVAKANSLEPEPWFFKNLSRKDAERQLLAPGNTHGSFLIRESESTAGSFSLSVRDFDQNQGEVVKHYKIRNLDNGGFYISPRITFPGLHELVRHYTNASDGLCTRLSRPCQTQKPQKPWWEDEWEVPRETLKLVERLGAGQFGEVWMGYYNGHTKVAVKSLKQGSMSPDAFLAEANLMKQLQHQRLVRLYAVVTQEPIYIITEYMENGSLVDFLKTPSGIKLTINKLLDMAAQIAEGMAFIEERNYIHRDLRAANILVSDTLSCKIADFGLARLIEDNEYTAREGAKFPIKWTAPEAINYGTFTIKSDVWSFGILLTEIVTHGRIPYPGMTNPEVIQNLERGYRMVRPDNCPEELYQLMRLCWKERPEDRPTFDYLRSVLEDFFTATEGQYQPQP

For the compound `Cc1cccc(-c2cc3nccc(Nc4ccccc4)c3s2)c1` [BK40143], the inhibition at 10 µM at LCK stood at 92.9%; on SRC, 84.7%; on FLT3, 95.3%. Further, the remaining binding at 10 µM on LCK was found to be 7.1%; at SRC, 5.3%; on FLT3, 4.7%. Besides, in the series on pTau, the “pTau (396) concentration in brain lysate (ELISA)” value was “significantly reduced Aβ and pTau (396) concentrations”. In addition, the “Aβ concentration in brain lysate (ELISA)” value in series [1] is “significantly reduced Aβ and pTau (396) concentrations”.

Turning to `Cc1cccc(-c2cc3nccc(N4CCOCC4)c3s2)c1` [BK40197], the inhibition at 10 µM stood at 9% at LCK, 19% at SRC and 89% at FLT3. For the same compound, the results for the remaining binding at 10 µM at LCK, on SRC and at FLT3 were 91%, 81% and 11%, respectively. In addition, the “solubility in DMSO” value in “Solubility in DMSO” is “insolubility”. The “pTau (396) concentration in brain lysate (ELISA)” value in the series with pTau was “significantly reduced Aβ and pTau (396) concentrations”. In addition, the “Aβ concentration in brain lysate (ELISA)” value in series [1] is “significantly reduced Aβ and pTau (396) concentrations”.

Source of the values: PMC11249953, “c-KIT inhibitors reduce pathology and improve behavior in the Tg(SwDI) model of Alzheimer’s disease” (Life Science Alliance, 2024).
